Data: patent publication US20230148599A1, “FUNGICIDAL MIXTURES CONTAINING PYRAZOLE DERIVATIVES” (FMC Corporation, priority 2020, published 2023)

How the values were obtained:
Assay type in all cases: in vivo
Conditions in all cases: 50 ppm, 100 = 100% disease control, 0 = no control
Botrytis cinerea = assay: Test E: tomato Botrytis, preventive spray on tomato seedlings
Source text: (§1) General protocol for preparing test suspensions for Tests A-F: the test compounds were first dissolved in acetone in an amount equal to 3% of the final volume and then suspended at the desired concentration (in ppm) in acetone and purified water (50/50 mix by volume) containing 250 ppm of the surfactant PEG400 (polyhydric alcohol esters). The resulting test suspensions were then used in Tests A-F.
(§2) The test suspension was sprayed to the point of run-off on tomato seedlings. The following day the seedlings were inoculated with a spore suspension of Botrytis cinerea (the causal agent of tomato Botrytis) and incubated in a saturated atmosphere at 20° C. for 48 h, and then moved to a growth chamber at 24° C. for 3 days, after which time visual disease ratings were made.
(§3) A rating of 100 indicates 100% disease control and a rating of 0 indicates no disease control (relative to the controls). A dash (−) indicates the compound was not tested.

[1] = system: Puccinia recondita f. sp. tritici; assay: Test B: wheat leaf rust, preventive spray on wheat seedlings
Source text: as §1
The test solution was sprayed to the point of run-off on wheat seedlings. The following day the seedlings were inoculated with a spore suspension of Puccinia recondita f. sp. tritici (the causal agent of wheat leaf rust) and incubated in a saturated atmosphere at 20° C. for 24 h, and then moved to a growth chamber at 20° C. for 7 days, after which time disease ratings were made.
as §3

Septoria tritici = assay: Test A: wheat leaf blotch, preventive spray on wheat seedlings
Source text: as §1
The test solution was sprayed to the point of run-off on wheat seedlings. The following day the seedlings were inoculated with a spore suspension of Septoria tritici (the causal agent of wheat leaf blotch) and incubated in a saturated atmosphere at 24° C. for 48 h, and then moved to a growth chamber at 20° C. for 17 days, after which time disease ratings were made.
as §3

[2] = system: Blumeria graminis f. sp. tritici; assay: Test C: wheat powdery mildew, preventive spray on wheat seedlings
Source text: as §1
The test suspension was sprayed to the point of run-off on wheat seedlings. The following day the seedlings were inoculated with a spore dust of Blumeria graminis f. sp. tritici, (also known as Erysiphe graminis f. sp. tritici, the causal agent of wheat powdery mildew) and incubated in a growth chamber at 20° C. for 8 days, after which time visual disease ratings were made.
as §3

Alternaria solani = assay: Test F: tomato early blight, preventive spray on tomato seedlings
Source text: as §1
as §2, with “Alternaria solani” for “Botrytis cinerea”, “early blight)” for “Botrytis)”, “27°” for “20°”, “20°” for “24°”
as §3

Phakopsora pachyrhizi = assay: Test D: Asian soybean rust, preventive spray on soybean seedlings
Source text: as §1
The test solution was sprayed to the point of run-off on soybean seedlings. The following day the seedlings were inoculated with a spore suspension of Phakopsora pachyrhizi (the causal agent of Asian soybean rust) and incubated in a saturated atmosphere at 22° C. for 24 h and then moved to a growth chamber at 22° C. for 8 days, after which time visual disease ratings were made.
as §3

SMILES | Test E disease control rating (Botrytis cinerea) | Test B disease control rating [1] | Test A disease control rating (Septoria tritici) | Test C disease control rating [2] | Test F disease control rating (Alternaria solani) | Test D disease control rating (Phakopsora pachyrhizi)
COc1cc(F)c(-c2c(C)nn(C)c2Nc2c(F)cccc2[N+](=O)[O-])c(F)c1 [compound 70] | 99% | 100% | 100% | 99% | 99% | 84%
Cc1nn(C)c(Nc2ccc(Br)cc2[N+](=O)[O-])c1-c1ccc(F)cc1Br [compound 21] | 95% | 86% | 100% | 84% | 17% | 0%
Cc1cc(Cl)c(Nc2c(-c3ccc(F)cc3Br)c(C)nn2C)c([N+](=O)[O-])c1 [compound 181] | 99% | 100% | 100% | 99% | 99% | 78%
COc1ccc(-c2c(C)nn(C)c2Nc2ccccc2[N+](=O)[O-])c(Cl)c1 [compound 140] | 100% | 86% | 99% | 31% | 93% | 0%
Cc1nn(C)c(Nc2c(F)cc(Br)cc2[N+](=O)[O-])c1-c1ccc(F)cc1F [compound 56] | 99% | 100% | 100% | 100% | 99% | 65%
Cc1nn(C)c(Nc2c(F)cccc2[N+](=O)[O-])c1-c1c(Cl)cccc1Cl [compound 53] | 98% | 100% | 100% | 98% | 98% | 0%
Cc1nn(C)c(Nc2c(Cl)cccc2[N+](=O)[O-])c1-c1c(F)cccc1Cl [compound 38] | 88% | 99% | 100% | 95% | 0% | 0%
Cc1nn(C)c(Nc2c(F)cccc2[N+](=O)[O-])c1-c1c(F)cc(Cl)cc1F [compound 151] | 99% | 100% | 100% | 99% | 99% | 0%
Cc1cc(F)c(Nc2c(-c3ccc(C#N)cc3F)c(C)nn2C)c([N+](=O)[O-])c1 [compound 198] | 99% | 99% | 99% | 95% | 100% | 89%
COc1ccc(Nc2c(-c3ccc(F)cc3Br)c(C)nn2C)c([N+](=O)[O-])c1 [compound 52] | 99% | 100% | 100% | 90% | 94% | 59%
Cc1nn(C)c(Nc2ccc(OC(F)(F)F)cc2[N+](=O)[O-])c1-c1ccc(F)cc1Cl [compound 94] | 0% | 0% | 73% | 72% | 9% | 73%
COc1ccc(Nc2c(-c3ccc(C#N)cc3Br)c(C)nn2C)c([N+](=O)[O-])c1 [compound 180] | 99% | 98% | 100% | 79% | 98% | 0%
Cc1nn(C)c(Nc2c(Cl)cc(Br)cc2[N+](=O)[O-])c1-c1ccc(F)cc1F [compound 55] | 34% | 99% | 100% | 90% | 0% | 0%
Cc1nn(C)c(Nc2cc(Cl)ccc2[N+](=O)[O-])c1-c1ccc(F)cc1Cl [compound 130] | 85% | 86% | 85% | 20% | 0% | 0%
COc1cc(F)c(-c2c(C)nn(C)c2Nc2ccc(OC)cc2[N+](=O)[O-])c(F)c1 [compound 161] | 100% | 100% | 100% | 100% | 99% | 0%
CCc1nn(C)c(Nc2ccc(OC)cc2[N+](=O)[O-])c1-c1ccc(F)cc1Cl [compound 173] | 98% | 100% | 100% | 98% | 93% | 0%
COc1ccc(Nc2c(-c3c(F)cc(C#N)cc3F)c(C)nn2C)c([N+](=O)[O-])c1 [compound 150] | 100% | 100% | 100% | 98% | 99% | 13%
Cc1nn(C)c(Nc2ccc(F)cc2[N+](=O)[O-])c1-c1c(Cl)cccc1Cl [compound 54] | 21% | 91% | 100% | 93% | 0% | 0%
Cc1ccc(Nc2c(-c3c(F)cccc3Cl)c(C)nn2C)c([N+](=O)[O-])c1 [compound 195] | 98% | 98% | 100% | 97% | 73% | 0%
COc1ccc(-c2c(C)nn(C)c2Nc2c(Cl)cccc2[N+](=O)[O-])c(Cl)c1 [compound 184] | 100% | 100% | 100% | 21% | 26% | 0%
Cc1nn(C)c(Nc2ccc(Cl)cc2[N+](=O)[O-])c1-c1ccc(F)cc1Cl [compound 92] | 100% | 96% | 100% | 89% | 79% | 0%
Cc1nn(C)c(Nc2c(F)cccc2[N+](=O)[O-])c1-c1ccc([N+](=O)[O-])cc1Cl [compound 192] | 99% | 99% | 100% | 76% | 93% | 19%
Cc1nn(C)c(Nc2c(Cl)cc(Br)cc2[N+](=O)[O-])c1-c1ccc(F)cc1Cl [compound 8] | 99% | 99% | 99% | 92% | 73% | 73%
COc1ccc(Nc2c(-c3ccc(C#N)cc3F)c(C)nn2C)c([N+](=O)[O-])c1 [compound 179] | 99% | 96% | 100% | 93% | 85% | 0%
Cc1nn(C)c(Nc2ccc(OCC(F)F)cc2[N+](=O)[O-])c1-c1ccc(F)cc1Cl [compound 36] | 100% | 89% | 100% | 56% | 0% | 25%
